Laboratory results published in patent US20050239751A1, “Heterocyclic anti-viral compounds comprising metabolizable moieties and their uses” (Rigel Pharmaceuticals, Inc., priority 2004, published 2005).

These compounds were tested on HCV replicon in 5-2 Luc replicon-comprising cells (assay: HCV replicon assay (luciferase; HEPC_REPLICON-LUC)). Settings: Hepatitis C virus; Tables 3-12; 50% reduction in luciferase emission, 5-2 Luc replicon cells; read-out: Replicon (IC50).
Type: cell-based, Hepatitis C virus
Excerpt: In one embodiment, the inhibitory activity of the metabolically active agent of the prodrug can be confirmed in a replicon assay that assesses the ability of a test compound to block or inhibit HCV replication in replicon cells. One example of a suitable replicon assay is the liver cell-line Huh 7-based replicon assay described in Lohmann et al., 1999, Science 285:110-113. A specific example of this replicon assay which utilizes luciferase translation is provided in the Examples Section. In one embodiment of this assay, the amount of test prodrug that yields a 50% reduction in translation as compared to a control cell (IC50) may be determined.
The inhibitory activity of certain prodrugs of the invention, which may inhibit HCV translation or replication prior to metablism and/or are metabolized into active agents, was confirmed using an HCV replicon assay. The HCV replicon can include such features as the HCV 5′ untranslated region including the HCV IRES, the HCV 3′ untranslated region, selected HCV genes encoding HCV polypeptides, selectable markers, and a reporter gene such as luciferase, GFP, etc. In the assay, actively dividing 5-2 Luc replicon-comprising cells (obtained from Ralf Bartenschlager; see Lohmann et al., 1999, Science 285:110-113) were seeded at a density of between about 5,000 and 7,500 cells/well onto 96 well plates (about 90 µl of cells per well) and incubated at 37° C. and 5% CO2 for 24 hours. Then, the test prodrug (in a volume of about 10 PI) was added to the wells at various concentrations and the cells were incubated for an additional 24-48 hours before luciferase assay. The media was aspirated from each well and Bright-Glo (Promega, Madison, WI) luciferase assay reagents were added to each well according to the manufacturer's instructions. Briefly, the BrightGlo reagent was diluted 1:1 with PBS and 100 µl of diluted reagent was added to each well. After 5 min of incubation at room temperature, luciferin emission was quantified with a luminometer. In this assay, the amount of test prodrug that yielded a 50% reduction in luciferase emission (IC50) was determined. This IC50 value may represent the antiviral activity of the prodrug itself, the activity of prodrug transformed into its active metabolized form, or a combination of the two.
In TABLES 3 through 12, a value of “+” indicates an IC50 of 10 μM or less in the specified assay; a value of “−” indicates an IC50 of greater than 10 μM in the specified assay.

| Compound | IC50 [µM] |
| --- | --- |
| CCOC(=O)[C@H](C)OC(=O)C(Cl)(Cl)C(=O)Nc1cccc(-c2cc(-c3c(Cl)cccc3Cl)no2)c1 [Cpd. 8, 2′,2′-dichloro-2′-(1S-ethoxycarbonyl-1-methylmethyleneoxycarbonyl)-N-[3-[3-(2,6-dichlorophenyl)-5-isoxazoyl]phenyl] acetamide] | ≤ 10 |
| CC1(C)C2CCC1(C)C(OC(=O)C(Cl)(Cl)C(=O)Nc1cccc(-c3cc(-c4c(Cl)cccc4Cl)no3)c1)C2 [Cpd. 9, 2′,2′-dichloro-2′-[(1S)-endo-borneyloxycarbonyl]-N-[3-[3-(2,6-dichlorophenyl)-5-isoxazoyl]phenyl] acetamide] | ≤ 10 |
| CC(=O)C(Cl)(Cl)C(=O)Nc1cccc(-c2cc(-c3c(Cl)cccc3Cl)no2)c1 [Cpd. 10] | > 10 |
| CCC(C)OC(=O)C(Cl)(Cl)C(=O)Nc1cccc(-c2cc(-c3c(Cl)cccc3Cl)no2)c1 (centres unmarked) [Cpd. 12, 2′,2′-dichloro-2′-(sec-butoxycarbonyl)-N-[3-[3-(2,6-dichlorophenyl)-5-isoxazoyl]phenyl] acetamide] | ≤ 10 |
| O=C(Nc1cccc(-c2cc(-c3c(Cl)cccc3Cl)no2)c1)C(Cl)(Cl)C(=O)OC1CCCCC1 [Cpd. 13, 2′,2′-dichloro-2′-(cyclohexyloxycarbony)-N-[3-[3-(2,6-dichlorophenyl)-5-isoxazoyl]phenyl] acetamide] | ≤ 10 |
| CC(C)(C)COC(=O)C(Cl)(Cl)C(=O)Nc1cccc(-c2cc(-c3c(Cl)cccc3Cl)no2)c1 [Cpd. 14] | ≤ 10 |
| CC(C)(C)OC(=O)C(Cl)(Cl)C(=O)Nc1cccc(-c2cc(-c3c(Cl)cccc3Cl)no2)c1 [Cpd. 15] | ≤ 10 |
| CC(C)OC(=O)C(Cl)(Cl)C(=O)Nc1cccc(-c2cc(-c3c(Cl)cccc3Cl)no2)c1 [Cpd. 16, 2′,2′-dichloro-2′-(isopropoxycarbonyl)-N-[3-[3-(2,6-dichlorophenyl)-5-isoxazoyl]phenyl] acetamide] | ≤ 10 |
| COC(=O)C(Cl)(Cl)C(=O)Nc1cccc(-c2cc(-c3c(Cl)cccc3Cl)no2)c1 [Cpd. 18] | ≤ 10 |
| COC(=O)C(Cl)(Cl)C(=O)Nc1cccc(-c2cc(-c3c(C4CC4)cccc3C(F)(F)F)no2)c1 [Cpd. 26, 2′,2′-dichloro-2′-(methoxycarbonyl)-N-[3-[3-(2-cyclopropyl-6-trifluoromethylphenyl]5-isoxazoyl]phenyl] acetamide] | ≤ 10 |
| COC(=O)C(Cl)(Cl)C(=O)Nc1cccc(-c2cc(-c3c(Cl)cccc3OC)no2)c1 [Cpd. 27, 2′,2′-dichloro-2′-(methoxycarbonyl)-N-[3-[3-(2-chloro-6-methoxyphenyl]5-isoxazoyl]phenyl] acetamide] | ≤ 10 |
| COC(=O)C(Cl)(Cl)C(=O)Nc1cccc(-c2cc(-c3c(Cl)ccnc3N(C)C)no2)c1 [Cpd. 28] | ≤ 10 |
| COC(=O)C(Cl)(Cl)C(=O)Nc1cccc(-c2cc(-c3ccccc3C(F)(F)F)no2)c1 [Cpd. 29, 2′,2′-dichloro-2′-(methoxycarbonyl)-N-[3-[3-(2-trifluoromethylphenyl)-5-isoxazoyl]phenyl] acetamide] | ≤ 10 |

Same assay, conditions: Table 15; read-out: Replicon (IC50)

| Compound | IC50 [µM] |
| --- | --- |
| 2′,2′-Dichloro-N-[3-[3-(2,6-dichlorophenyl)-5-isoxazolyl]-4-(pyridyl)]-N-[2-(4-fluorobenzoyl)ethyl] Acetamide [126a] | ≤ 10 |
| 2′,2′-Dichloro-N-[3-[3-(2,6-dichlorophenyl)-5-isoxazolyl]phenyl]-N-[2-(4-fluorobenzoyl)ethyl] Acetamide [100a] | ≤ 10 |
| 2′,2′-Dichloro-N-[3-[3-(2,6-dichlorophenyl)-5-isoxazolyl]phenyl]-N-[2-(4-methoxybenzoyl)ethyl] Acetamide [Cpd. 103a] | ≤ 10 |
| 2′,2′-Dichloro-N-[3-[3-(2,6-dichlorophenyl)-5-isoxazolyl]phenyl]-N-[2-(benzoyl)ethyl] Acetamide [Cpd. 102a] | ≤ 10 |
| 2′,2′-Dichloro-N-[3-[3-(2-chloro-6-hydroxycarbonylphenyl)-5-isoxazolyl]phenyl]-N-[2-(4-fluorobenzoyl)ethyl] Acetamide [Cpd. 129a] | ≤ 10 |
| 2′,2′-Dichloro-N-[3-[3-(2-chloro-6-methoxycarbonylphenyl)-5-isoxazolyl]phenyl]-N-[2-(4-fluorobenzoyl)ethyl] Acetamide [Cpd. 133a] | ≤ 10 |
| 2′,2′-Dichloro-N-[3-[3-(2-chloro-6-methoxyphenyl)-5-isoxazolyl]phenyl]-N-[2-(4-fluorobenzoyl)ethyl] Acetamide [Cpd. 113a] | ≤ 10 |
| 2′,2′-Dichloro-N-[3-[3-(2-chloro-6-tbutoxycarbonylphenyl)-5-isoxazolyl]phenyl]N-[2-(4-fluorobenzoyl)ethyl] Acetamide [Cpd. 128a] | ≤ 10 |
| 2′,2′-Dichloro-N-[3-[3-(2-cyclopropyl-6-trifluoromethylphenyl)-5-isoxazolyl]phenyl]N-[2-(4-fluorobenzoyl)ethyl] Acetamide [Cpd. 114a] | ≤ 10 |
| 2′,2′-Dichloro-N-[3-[3-[2-chloro-6-(N′-acetyl-4piperdinyloxy)phenyl]-5-isoxazolyl]phenyl]-N-[2-(4-fluorobenzoyl)ethyl] Acetamide [Cpd. 127a] | ≤ 10 |
| O=C(CCCN(C(=O)C(Cl)Cl)c1cccc(-c2cc(-c3c(Cl)cccc3Cl)no2)c1)c1ccccc1 [107a] | ≤ 10 |

Same assay, conditions: Tables 3-12; 50% reduction in luciferase emission, 5-2 Luc replicon cells; read-out: Replicon (IC50)

| Compound | IC50 [µM] |
| --- | --- |
| 2,2-dichloro-2-(diethoxyphosphonyl)-N-[3-[3-(2,6-dichlorophenyl)-5-isoxazoyl]phenyl] acetamide [compound 405] | ≤ 10 |
| 2,2-dichloro-2-(dihydroxyphosphonyl)-N-[3-[3-(2,6-dichlorophenyl)-5-isoxazoyl]phenyl] acetamide [Cpd. 407] | > 10 |
| 2,2-dichloro-N-[3′-[3′-(2′-chloro-6′-tbutoxycarbonylphenyl)-5′-isoxazoyl]phenyl]-N-[(5-isopropyl-1,3-dioxolene-2-one4-yl)methylene] acetamide [Cpd. 36] | ≤ 10 |
| 2′,2′-dichloro-2′-(benzyloxycarbonyl)-N-[3-[3-(2,6-dichlorophenyl)-5-isoxazoyl]phenyl] acetamide [Cpd. 17] | ≤ 10 |
| 2′,2′-dichloro-2′-(diethoxyphosphonyl)-N-[3-[3-(2-fluoro-6-trifluoromethylphenyl)-5-isoxazoyl]phenyl] acetamide [Cpd. 6] | ≤ 10 |
| 2′,2′-dichloro-2′-(diisopropoxyphosphonyl)-N-[3-[3-(2,6-dichlorophenyl)-5-isoxazoyl]phenyl] acetamide [Cpd. 4] | ≤ 10 |
| 2′,2′-dichloro-2′-[(1R, 2S, 5Rkmenthyloxycarbonyl]-N-[3-[3-(2,6-dichlorophenyl)-5-isoxazoyl]phenyl] acetamide [Cpd. 11] | ≤ 10 |
| 2′-(diethoxyphosphonyl)-2′,2′-difluoro-N-[3-[3-(2,6-dichlorophenyl)-5-isoxazoyl]phenyl] acetamide [Cpd. 3] | > 10 |
| 2′-chloro-2′-(diethoxyphosphonyl)-2-fluoro-N-[3-[3-(2,6-dichlorophenyl)-5-isoxazoyl]phenyl] acetamide [Cpd. 2] | > 10 |
| 2′-chloro-2′-(diethoxyphosphonyl)-N-[3-[3-(2,6-dichlorophenyl)-5-isoxazoyl]phenyl] acetamide [Cpd. 1] | > 10 |
| CCOP(=O)(OCC)C(Cl)(Cl)C(=O)Nc1cccc(-c2cc(-c3ccccc3C(F)(F)F)no2)c1 [Cpd. 5] | ≤ 10 |
